The supplement of paper PMC13380429

What was measured:
Settings in all cases: 72 h
Caco-2 [1] = assay: cell viability relative to DMSO; higher = less toxic
Calu-3 [2] = assay: as above
HepG2 [3] = assay: as above
U2OS [4] = assay: as above
Vero E6 [5] = assay: as above
Calu-3 [6] = assay: relative viability EC50 (midpoint between 100% and the lowest measured viability); higher = less toxic
U2OS [7] = assay: as above
Vero E6 [8] = assay: as above
Caco-2 [9] = assay: drug sensitivity score (DSS) for viability; higher = more toxic; extreme values may be limits of the assay
Calu-3 [10] = assay: as above
HepG2 [11] = assay: as above
U2OS [12] = assay: as above
Vero E6 [13] = assay: as above
Caco-2 [14] = assay: relative viability EC50 (midpoint between 100% and the lowest measured viability); higher = less toxic
HepG2 [15] = assay: as above

Compound	cell viability (Caco-2 [1]; 1 nM)	cell viability (Caco-2 [1]; 10 nM)	cell viability (Caco-2 [1]; 100 nM)	cell viability (Caco-2 [1]; 1000 nM)	cell viability (Caco-2 [1]; 10000 nM)	cell viability (Calu-3 [2]; 1 nM)	cell viability (Calu-3 [2]; 10 nM)	cell viability (Calu-3 [2]; 100 nM)	cell viability (Calu-3 [2]; 1000 nM)	cell viability (Calu-3 [2]; 10000 nM)	cell viability (HepG2 [3]; 1 nM)	cell viability (HepG2 [3]; 10 nM)	cell viability (HepG2 [3]; 100 nM)	cell viability (HepG2 [3]; 1000 nM)	cell viability (HepG2 [3]; 10000 nM)	cell viability (U2OS [4]; 1 nM)	cell viability (U2OS [4]; 10 nM)	cell viability (U2OS [4]; 100 nM)	cell viability (U2OS [4]; 1000 nM)	cell viability (U2OS [4]; 10000 nM)	cell viability (Vero E6 [5]; 1 nM)	cell viability (Vero E6 [5]; 10 nM)	cell viability (Vero E6 [5]; 100 nM)	cell viability (Vero E6 [5]; 1000 nM)	cell viability (Vero E6 [5]; 10000 nM)	relative viability EC50 (Calu-3 [6])	relative viability EC50 (U2OS [7])	relative viability EC50 (Vero E6 [8])	drug sensitivity score (Caco-2 [9])	drug sensitivity score (Calu-3 [10])	drug sensitivity score (HepG2 [11])	drug sensitivity score (U2OS [12])	drug sensitivity score (Vero E6 [13])	relative viability EC50 (Caco-2 [14])	relative viability EC50 (HepG2 [15])
Cc1c(C(=O)NCCCO)cnn1-c1nc(-c2cccc(C(F)(F)F)c2)cs1	93.5%	91.4%	96.1%	102%	67.1%	107%	102%	112%	104%	94.3%	99.3%	91.1%	96%	106%	52.9%	101%	103%	93.3%	98.1%	83.9%	98.1%	95.9%	102%	97.7%	90.3%	> 10 µM	> 10 µM	> 10 µM	1.4	0	2.1	0.5	0	–	–
Cc1cccc(NC(=O)CN2CCC(c3ccccn3)CC2)c1	98.7%	101%	95%	91.3%	93.9%	110%	101%	109%	108%	98.1%	108%	103%	97%	102%	101%	98.9%	97.9%	94.7%	98.1%	93.9%	–	–	–	–	–	> 10 µM	> 10 µM	–	0	0	0	0	–	> 10 µM	> 10 µM
NC(=O)[C@@H](CC1CC1)[C@@H](CCC(F)(F)F)C(=O)N[C@H]1N=C(c2ccccc2)c2cccc(F)c2NC1=O	97.7%	98.4%	96.5%	96.2%	85.2%	110%	99.4%	91.9%	85.8%	99.1%	94.3%	106%	105%	91.9%	106%	99%	96.4%	94.1%	94.1%	92.7%	–	–	–	–	–	> 10 µM	> 10 µM	–	0.4	0	0	0	–	> 10 µM	> 10 µM
NC1(C(=O)N[C@@H](CCO)c2ccc(Cl)cc2)CCN(c2ncnc3[nH]ccc23)CC1 [AZD5363]	100%	102%	93.3%	74.8%	54.6%	113%	101%	102%	85.6%	75.6%	99.3%	101%	93.8%	84.8%	66.6%	97.4%	94.7%	92.5%	90.9%	57.5%	98.7%	99.9%	96.4%	94.8%	90.8%	> 10 µM	–	> 10 µM	5.3	2.5	3	3.6	0	–	–
CC(C)(C)C1CCc2c(sc(NC(=O)c3ccco3)c2C(=O)O)C1 (stereo unspecified) [CaCCinh-A01]	102%	103%	97.1%	97.8%	82.2%	91.2%	99.5%	103%	96.4%	99.6%	115%	90.8%	103%	87.2%	69.3%	98.8%	101%	96.2%	97.1%	98%	98.8%	98.8%	106%	98.5%	72.9%	> 10 µM	> 10 µM	–	0.7	0	3	0	1.3	> 10 µM	–
CC1(C)CC(Oc2ccc(-c3ccc(-c4cn[nH]c4)cc3O)nn2)CC(C)(C)N1 [LMI070]	95.1%	108%	106%	94.6%	72.5%	96.7%	97.1%	92.7%	74.5%	85.4%	107%	104%	110%	51.8%	12.4%	96.4%	102%	103%	93.5%	6.6%	101%	102%	104%	48.5%	5.1%	–	2.6 µM	0.935 µM	2	2.9	10.7	6.2	11.5	–	0.926 µM
CC(C)(O)c1coc(S(=O)(=O)NC(=O)Nc2c3c(cc4c2CCC4)CCC3)c1 [MCC950]	106%	96.1%	102%	96.9%	104%	120%	105%	100%	103%	99.3%	97.9%	95.9%	102%	113%	105%	104%	103%	105%	97.7%	102%	–	–	–	–	–	> 10 µM	> 10 µM	–	0	0	0	0	–	> 10 µM	> 10 µM
CC(C)(C(=O)NCC(F)(F)C(F)(F)F)C(=O)N[C@@H]1C(=O)Nc2ccccc2-c2ccccc21 [RG4733]	94.4%	92.3%	97.8%	89.8%	82.2%	102%	108%	112%	98.6%	93.9%	102%	111%	101%	102%	92.1%	96.9%	99.1%	99.6%	94.4%	97.3%	–	–	–	–	–	> 10 µM	> 10 µM	–	0.6	0	0	0	–	> 10 µM	> 10 µM
O=C1N=C(NCc2cccs2)S/C1=C\c1ccc2ncccc2c1 [Ro-3306]	89.1%	105%	97.2%	100%	74.2%	101%	113%	94%	103%	104%	93.2%	77.7%	90.2%	62.2%	51%	97.9%	98.5%	97.1%	98.3%	81.1%	97%	97.4%	98.5%	93.8%	80.9%	> 10 µM	> 10 µM	> 10 µM	1	0	9.2	0.7	1.1	–	–
COc1ccncc1C(=O)NC(=O)Nc1ccc(-c2ccccc2)c(C(F)(F)F)c1 [S1P1-agonist-III]	100%	90.6%	95.5%	99.1%	87.8%	110%	97.5%	93.2%	99.2%	91.1%	95.3%	104%	95.5%	107%	97.1%	106%	107%	101%	98.4%	98.2%	–	–	–	–	–	> 10 µM	> 10 µM	–	0	0	0	0	–	> 10 µM	> 10 µM
O=C(NCC(=O)N1CCCC1)Nc1ccc2cnccc2c1 [SGC-707]	98.1%	97%	95.7%	100%	93.1%	94.2%	95.8%	105%	86.2%	110%	93.6%	117%	98.4%	103%	97.3%	99.2%	93%	103%	97.3%	96.8%	–	–	–	–	–	> 10 µM	> 10 µM	–	0	0	0	0	–	> 10 µM	> 10 µM
COc1cc2c(cc1OC)CN(C(=O)/C=C/c1c(-c3ccccc3)n(C)c3ncccc13)CC2 [SIS3]	93.9%	94.5%	88.8%	96.5%	71.1%	–	–	–	–	–	98.9%	106%	106%	106%	106%	99%	101%	94.9%	99.9%	96.2%	100%	93.3%	98.8%	98.2%	100%	–	> 10 µM	> 10 µM	1.8	–	0	0	0	–	> 10 µM
O=C(O)COc1ccc(/C=C2\SC(=O)NC2=O)cc1 [TCS-3035]	105%	107%	97.3%	104%	102%	101%	97.6%	97.3%	103%	106%	103%	104%	103%	105%	95.3%	102%	94.9%	97.8%	99.8%	100%	–	–	–	–	–	> 10 µM	> 10 µM	–	0	0	0	0	–	> 10 µM	> 10 µM
NS(=O)(=O)c1ccc(NC(=O)Nc2ccc(F)cc2)cc1 [U-104]	99.4%	94.4%	96.9%	105%	101%	112%	91.7%	107%	101%	108%	102%	106%	103%	89.8%	104%	–	–	–	–	–	–	–	–	–	–	> 10 µM	–	–	0	0	0	–	–	> 10 µM	> 10 µM
Cc1nc(NC(=O)N2CCC[C@H]2C(N)=O)sc1-c1ccnc(C(C)(C)C(F)(F)F)c1 [alpelisib]	107%	102%	89.8%	91.5%	52.3%	87.4%	93.8%	88.4%	60.8%	25.7%	102%	99.7%	89.6%	71%	60.1%	102%	93.3%	96.8%	89.9%	73.7%	104%	104%	98.4%	94.7%	80.3%	0.743 µM	–	> 10 µM	3.9	9.2	6.1	1.8	1.2	–	–
Cc1nc(N)sc1CCN [amthamine]	96.3%	95.3%	87.4%	92.4%	96.5%	98.2%	97.3%	105%	109%	109%	104%	105%	106%	122%	99.4%	–	–	–	–	–	–	–	–	–	–	> 10 µM	–	–	0	0	0	–	–	> 10 µM	> 10 µM
